One assay addresses T1, SYK kinase (Homo sapiens, UniProt P43405).
T1 construct: purchased Invitrogen, Carlsbad
Description: SYK assay (OMNIA Kinase Assay, Invitrogen). It is filed as biochemical. To be noted: apparent Ki calculated from the IC50 using the Cheng-Prusoff equation; 1 mM ATP, 10 μM Peptide Substrate; read-out: SYK Activities: Ki. The method in brief: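 Continuous SOX-fluorescence (Omnia) readout of Tyr 7 peptide (10 μM) phosphorylation with 1 mM ATP and 0.2 mM DTT at 30° C, started by SYK addition. Fluorescence (λex 360/λem 485 nm) was read every 30 s for 30 min. IC50 from velocity vs concentration; apparent Ki via Cheng-Prusoff.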

A further assay deals with MYLK (Homo sapiens, UniProt Q15746). Kind of assay: MYLK assay (LanthaScreen Eu Kinase Binding Assay). Particulars: 5 nM MYLK, 30 nM tracer 236, RT 1 h; read-out: MYLK Activites: IC50. The essentials: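 TR-FRET tracer-displacement binding: 5 nM MYLK with 2 nM Eu-anti-GST antibody and 30 nM tracer 236 in kinase buffer A, 1 h at RT. The 665/615 nm emission ratio was plotted against inhibitor concentration; IC50 from variable-slope sigmoidal fit.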
(In general: Time-resolved FRET reads energy transfer from a long-lived donor to a nearby acceptor.)

The target of the next assay is LRRK2 (Homo sapiens, UniProt Q5S007). Kind of assay: LRRK2 assay (LanthaScreen Eu Kinase Binding Assay). Particulars: 5 nM LRRK2, 10 nM tracer 236, RT 1 h; read-out: LRRK2 Activites: IC50. The essentials:
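Kinase binding was detected by europium anti-tag antibody FRET with a competing tracer, so inhibitor binding lowers the FRET signal. IC50 came from a variable-slope sigmoidal fit of emission ratio against inhibitor concentration.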

Bounds are passed on as bounds.

Sequence of MYLK (Q15746 whole entry): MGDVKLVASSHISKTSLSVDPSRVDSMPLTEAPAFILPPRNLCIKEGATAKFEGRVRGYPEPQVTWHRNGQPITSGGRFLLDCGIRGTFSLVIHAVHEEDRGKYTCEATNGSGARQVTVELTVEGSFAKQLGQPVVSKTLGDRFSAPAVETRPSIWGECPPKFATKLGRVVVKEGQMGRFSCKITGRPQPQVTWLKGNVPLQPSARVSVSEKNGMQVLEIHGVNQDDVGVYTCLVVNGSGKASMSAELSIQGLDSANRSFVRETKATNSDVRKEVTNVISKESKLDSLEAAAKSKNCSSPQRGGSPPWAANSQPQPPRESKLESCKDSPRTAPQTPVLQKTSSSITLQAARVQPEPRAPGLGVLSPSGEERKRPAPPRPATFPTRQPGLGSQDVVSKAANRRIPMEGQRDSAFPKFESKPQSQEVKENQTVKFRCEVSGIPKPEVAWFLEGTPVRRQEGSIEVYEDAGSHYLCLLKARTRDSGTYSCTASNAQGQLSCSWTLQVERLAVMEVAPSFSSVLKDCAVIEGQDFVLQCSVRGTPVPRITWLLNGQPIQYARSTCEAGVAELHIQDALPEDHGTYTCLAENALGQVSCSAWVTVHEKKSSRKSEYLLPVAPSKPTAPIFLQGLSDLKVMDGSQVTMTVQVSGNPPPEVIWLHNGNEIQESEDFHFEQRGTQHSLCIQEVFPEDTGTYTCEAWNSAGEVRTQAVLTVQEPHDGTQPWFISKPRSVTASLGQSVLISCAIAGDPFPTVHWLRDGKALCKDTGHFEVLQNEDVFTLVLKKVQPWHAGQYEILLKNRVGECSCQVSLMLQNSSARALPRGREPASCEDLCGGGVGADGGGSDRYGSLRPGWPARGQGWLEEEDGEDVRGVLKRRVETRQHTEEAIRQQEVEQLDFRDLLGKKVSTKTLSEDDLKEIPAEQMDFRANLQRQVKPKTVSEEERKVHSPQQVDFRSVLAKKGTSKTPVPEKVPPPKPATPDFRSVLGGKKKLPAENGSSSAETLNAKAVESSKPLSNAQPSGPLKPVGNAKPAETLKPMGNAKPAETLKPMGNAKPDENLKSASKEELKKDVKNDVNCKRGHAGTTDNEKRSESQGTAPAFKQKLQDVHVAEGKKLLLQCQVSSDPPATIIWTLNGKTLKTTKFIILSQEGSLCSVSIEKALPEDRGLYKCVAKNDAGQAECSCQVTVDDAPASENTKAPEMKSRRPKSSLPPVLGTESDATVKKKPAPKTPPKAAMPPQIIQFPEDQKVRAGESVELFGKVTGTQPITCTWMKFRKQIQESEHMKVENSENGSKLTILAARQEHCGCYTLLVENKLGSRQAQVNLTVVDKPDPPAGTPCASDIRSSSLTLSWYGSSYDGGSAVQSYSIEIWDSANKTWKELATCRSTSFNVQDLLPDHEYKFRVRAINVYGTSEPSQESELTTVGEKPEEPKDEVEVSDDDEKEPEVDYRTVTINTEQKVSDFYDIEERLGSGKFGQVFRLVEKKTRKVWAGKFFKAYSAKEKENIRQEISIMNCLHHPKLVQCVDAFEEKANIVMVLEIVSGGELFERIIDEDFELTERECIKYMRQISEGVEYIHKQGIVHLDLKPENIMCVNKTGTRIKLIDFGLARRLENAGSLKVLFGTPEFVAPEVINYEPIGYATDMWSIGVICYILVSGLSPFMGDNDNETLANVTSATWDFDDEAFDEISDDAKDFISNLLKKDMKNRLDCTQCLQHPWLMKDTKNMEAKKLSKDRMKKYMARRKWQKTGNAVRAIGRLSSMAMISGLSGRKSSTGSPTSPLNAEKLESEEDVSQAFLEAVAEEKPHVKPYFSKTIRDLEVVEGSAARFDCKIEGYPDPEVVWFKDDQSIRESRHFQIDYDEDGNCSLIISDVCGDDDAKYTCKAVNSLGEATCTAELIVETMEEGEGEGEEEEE
Sequence of LRRK2 (Q5S007 970-2527 limits assumed): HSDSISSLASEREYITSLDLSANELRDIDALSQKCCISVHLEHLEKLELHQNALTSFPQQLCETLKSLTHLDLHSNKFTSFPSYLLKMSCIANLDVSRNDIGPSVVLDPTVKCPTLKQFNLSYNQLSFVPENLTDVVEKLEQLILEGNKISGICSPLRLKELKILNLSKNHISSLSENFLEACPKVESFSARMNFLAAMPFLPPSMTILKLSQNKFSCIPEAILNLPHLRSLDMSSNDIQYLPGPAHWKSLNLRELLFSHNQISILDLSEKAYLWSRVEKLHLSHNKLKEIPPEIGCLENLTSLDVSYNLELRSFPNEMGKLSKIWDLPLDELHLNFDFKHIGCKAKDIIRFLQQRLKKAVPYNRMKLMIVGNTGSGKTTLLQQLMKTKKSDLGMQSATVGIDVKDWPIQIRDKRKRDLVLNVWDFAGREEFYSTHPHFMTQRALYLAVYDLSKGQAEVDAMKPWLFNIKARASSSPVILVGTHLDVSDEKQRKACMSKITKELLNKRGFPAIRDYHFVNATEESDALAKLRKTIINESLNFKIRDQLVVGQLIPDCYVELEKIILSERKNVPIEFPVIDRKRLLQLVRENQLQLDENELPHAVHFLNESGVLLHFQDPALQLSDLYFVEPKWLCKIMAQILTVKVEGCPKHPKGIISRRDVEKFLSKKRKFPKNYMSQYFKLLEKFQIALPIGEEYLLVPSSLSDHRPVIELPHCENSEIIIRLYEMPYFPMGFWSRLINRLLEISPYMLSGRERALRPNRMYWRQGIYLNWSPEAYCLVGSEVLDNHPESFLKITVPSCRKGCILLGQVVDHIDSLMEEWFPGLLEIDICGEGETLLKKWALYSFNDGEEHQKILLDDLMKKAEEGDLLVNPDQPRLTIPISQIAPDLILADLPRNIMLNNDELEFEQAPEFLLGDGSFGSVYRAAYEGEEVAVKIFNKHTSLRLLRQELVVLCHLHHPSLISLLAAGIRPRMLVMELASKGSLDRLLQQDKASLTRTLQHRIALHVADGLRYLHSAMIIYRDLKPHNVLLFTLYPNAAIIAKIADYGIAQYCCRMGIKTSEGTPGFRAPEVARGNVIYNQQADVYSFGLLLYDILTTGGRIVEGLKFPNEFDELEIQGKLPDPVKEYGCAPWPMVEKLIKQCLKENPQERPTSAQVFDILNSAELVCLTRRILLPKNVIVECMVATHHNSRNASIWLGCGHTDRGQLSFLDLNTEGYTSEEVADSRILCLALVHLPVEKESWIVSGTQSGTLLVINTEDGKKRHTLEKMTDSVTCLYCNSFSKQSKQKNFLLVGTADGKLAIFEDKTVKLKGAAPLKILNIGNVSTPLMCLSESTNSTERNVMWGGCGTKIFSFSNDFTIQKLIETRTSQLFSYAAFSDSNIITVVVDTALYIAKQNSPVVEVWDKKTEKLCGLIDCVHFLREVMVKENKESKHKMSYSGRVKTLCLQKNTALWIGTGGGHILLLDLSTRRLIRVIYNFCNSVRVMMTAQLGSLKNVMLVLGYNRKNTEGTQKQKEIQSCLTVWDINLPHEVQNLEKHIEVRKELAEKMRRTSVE

As to `COc1ccc2nc(Nc3ccc(C(=O)N4CCN(C)CC4)cc3)c3n[nH]cc3c2c1` [Example #235, (4-((8-methoxy-2H-pyrazolo[3,4-c]quinolin-4-yl)amino)phenyl)(4-methylpiperazin-1-yl)methanone], the Ki on SYK kinase was 10 to 100 nM. Besides, the IC50 is less than 5000 nM on MYLK and 10 to 100 nM on LRRK2.
As for `COc1ccc2nc(Nc3ccc(CN4CCOCC4)cc3)c3n[nH]cc3c2c1` [Example #237, (8-Methoxy-2H-pyrazolo[3,4-c]quinolin-4-yl)-(4-morpholin-4-ylmethyl-phenyl)-amine], the Ki on SYK kinase was 10 to 100 nM. The IC50 on MYLK is less than 5000 nM; at LRRK2, 10 to 100 nM.
For `COc1ccc2nc(Nc3ccc(CN4CCN(C)CC4)cc3)c3n[nH]cc3c2c1` [Example #238, (8-Methoxy-2H-pyrazolo[3,4-c]quinolin-4-yl)-[4-(4-methyl-piperazin-1-ylmethyl)-phenyl]-amine], the Ki on SYK kinase is 10 to 100 nM. In addition, the IC50 on MYLK was less than 5000 nM; at LRRK2 it was 100 to 1000 nM.
Consider `CCN1CCN(c2ccc(Nc3nc4c(OC)cccc4c4c[nH]nc34)cc2)CC1` [Example #239, [4-(4-Ethyl-piperazin-1-yl)-phenyl]-(6-methoxy-2H-pyrazolo[3,4-c]quinolin-4-yl)-amine], for which the Ki on SYK kinase is 10 to 100 nM. Further, the IC50 on MYLK was less than 5000 nM; on LRRK2, 100 to 1000 nM.
The matching figures for `CCN1CCN(c2ccc(Nc3nc4ccc(OC)cc4c4c[nH]nc34)cc2F)CC1` [Example #240, [4-(4-ethyl-piperazin-1-yl)-3-fluorophenyl]-(8-methoxy-2H-pyrazolo[3,4-c]quinolin-4-yl)-amine]: 10 to 100 nM, less than 5000 nM and 10 to 100 nM.
Turning to `COc1cccc2c1nc(Nc1ccc3c(c1)NC(=O)CCC3)c1n[nH]cc12` [Example #241, 8-((6-methoxy-2H-pyrazolo[3,4-c]quinolin-4-yl)amino)-4,5-dihydro-1H-benzo[b]azepin-2(3H)-one], on SYK kinase, the Ki is 10 to 100 nM. Besides, the IC50 is less than 5000 nM at MYLK and 100 to 1000 nM at LRRK2.
The matching figures for `COc1cccc2c1nc(Nc1ccc3[nH]cnc3c1)c1n[nH]cc12` [Example #242, (1H-benzoimidazol-5-yl)-(6-methoxy-2H-pyrazolo[3,4-c]quinolin-4-yl)-amine]: 10 to 100 nM, less than 5000 nM and 100 to 1000 nM.
For `COc1cccc2nc(Nc3ccc(N4CCN(C5CC5)CC4)cc3)c3n[nH]cc3c12` [Example #243, [4-(4-cyclopropyl-piperazin-1-yl)-phenyl]-(9-methoxy-2H-pyrazolo[3,4-c]quinolin-4-yl)-amine], the Ki at SYK kinase was 10 to 100 nM. Moreover, the IC50 on MYLK is less than 5000 nM; at LRRK2 it was 100 to 1000 nM.
As to `COc1ccc2nc(Nc3ccc(OCCN(C)C)nc3)c3n[nH]cc3c2c1` [Example #245, [6-(2-Dimethylamino-ethoxy)-pyridin-3-yl]-(8-methoxy-2H-pyrazolo[3,4-c]quinolin-4-yl)-amine], the Ki on SYK kinase is 100 to 1000 nM. In addition, the IC50 was less than 5000 nM on MYLK and 100 to 1000 nM on LRRK2.
Take `COc1cccc2c1nc(Nc1ccc(N3CCOCC3)c(F)c1)c1n[nH]cc12` [Example #246, (3-Fluoro-4-morpholin-4-yl-phenyl)-(6-methoxy-2H-pyrazolo[3,4-c]quinolin-4-yl)-amine]: the Ki at SYK kinase was less than 10 nM. The IC50 on MYLK is less than 5000 nM; at LRRK2, 100 to 1000 nM.
For `COc1cccc2c1nc(Nc1ccc3[nH]c(C)nc3c1)c1n[nH]cc12` [Example #248, (6-Methoxy-2H-pyrazolo[3,4-c]quinolin-4-yl)-(2-methyl-1H-benzoimidazol-5-yl)-amine], the Ki on SYK kinase is 100 to 1000 nM. For the same compound, the values for the IC50 on MYLK and at LRRK2 were less than 5000 nM and 100 to 1000 nM, respectively.
On to `COc1cc(OC)c2nc(Nc3ccc(OC)c(OC)c3)c3n[nH]cc3c2c1` [Example #251, (3,4-Dimethoxy-phenyl)-(6,8-dimethoxy-2H-pyrazolo[3,4-c]quinolin-4-yl)-amine], for which, at SYK kinase, the Ki was less than 10 nM. The IC50 on MYLK is less than 5000 nM; on LRRK2, 100 to 1000 nM.
As for `COc1cc(OC)c2nc(Nc3ccc(N4CCN(C5CC5)CC4)cc3)c3n[nH]cc3c2c1` [Example #252, [4-(4-Cyclopropyl-piperazin-1-yl)-phenyl]-(6,8-dimethoxy-2H-pyrazolo[3,4-c]quinolin-4-yl)-amine], the Ki at SYK kinase was 100 to 1000 nM. Further, the IC50 is less than 5000 nM on MYLK and 100 to 1000 nM on LRRK2.
Take `COc1ccc2nc(Nc3ccc(NCCCN(C)C)nc3)c3n[nH]cc3c2c1` [Example #253, N2-(3-(dimethylamino)propyl)-N5-(8-methoxy-2H-pyrazolo[3,4-c]quinolin-4-yl)pyridine-2,5-diamine]: the Ki on SYK kinase is 100 to 1000 nM. The IC50 at MYLK was less than 5000 nM; at LRRK2, 100 to 1000 nM.
Turning to `COc1ccc2nc(Nc3ccc(NCCN(C)C)nc3)c3n[nH]cc3c2c1` [Example #254, N2-(2-(dimethylamino)ethyl)-N5-(8-methoxy-2H-pyrazolo[3,4-c]quinolin-4-yl)pyridine-2,5-diamine], the Ki at SYK kinase is 10 to 100 nM. Also, the IC50 was less than 5000 nM at MYLK and 100 to 1000 nM on LRRK2.
For the compound `COc1ccc2nc(Nc3ccc(OC4CCN(C)CC4)nc3)c3n[nH]cc3c2c1` [Example #255, (8-Methoxy-2H-pyrazolo[3,4-c]quinolin-4-yl)-[6-(1-methyl-piperidin-4-yloxy)-pyridin-3-yl]-amine], the Ki at SYK kinase is 10 to 100 nM. The IC50 on MYLK is less than 5000 nM; on LRRK2, 100 to 1000 nM.
With `COc1ccc2c(c1)nc(Nc1ccc3c(c1)NC(=O)CCC3)c1n[nH]cc12` [Example #257, 8-((7-methoxy-2H-pyrazolo[3,4-c]quinolin-4-yl)amino)-4,5-dihydro-1H-benzo[b]azepin-2(3H)-one], on SYK kinase, the Ki was less than 10 nM. For the same compound, the IC50 on MYLK is less than 5000 nM; on LRRK2, 100 to 1000 nM.
In the case of `COc1cccc2c1nc(Nc1ccc3c(c1)OCCO3)c1n[nH]cc12` [Example #258, (2,3-Dihydro-benzo[1,4]dioxin-6-yl)-(6-methoxy-2H-pyrazolo[3,4-c]quinolin-4-yl)-amine], the Ki at SYK kinase is 100 to 1000 nM. In addition, the IC50 on MYLK is less than 5000 nM; on LRRK2, 100 to 1000 nM.
As for `COc1ccc2c(c1)nc(Nc1ccc(N3CCN(C4CC4)CC3)cc1)c1n[nH]cc12` [Example #262, [4-(4-Cyclopropyl-piperazin-1-yl)-phenyl]-(7-methoxy-2H-pyrazolo[3,4-c]quinolin-4-yl)-amine], the Ki on SYK kinase was 10 to 100 nM. Besides, the figures for the IC50 on MYLK and at LRRK2 were less than 5000 nM and 100 to 1000 nM, respectively.
For `COc1ccc2c(c1)nc(Nc1ccc3[nH]c(C)nc3c1)c1n[nH]cc12` [Example #264, (7-Methoxy-2H-pyrazolo[3,4-c]quinolin-4-yl)-(2-methyl-1H-benzoimidazol-5-yl)-amine], the Ki on SYK kinase is 10 to 100 nM. Also, the IC50 at MYLK was less than 5000 nM; at LRRK2, 100 to 1000 nM.
For `COc1ccc2c(c1)nc(Nc1ccc3c(c1)NC(=O)CO3)c1n[nH]cc12` [Example #266, 6-((7-methoxy-2H-pyrazolo[3,4-c]quinolin-4-yl)amino)-2H-benzo[b][1,4]oxazin-3(4H)-one] the same measures were less than 10 nM, less than 5000 nM and 10 to 100 nM.
Turning to `COc1cccc2c1nc(Nc1ccc3[nH]ncc3c1)c1n[nH]cc12` [Example #268, (1H-Indazol-5-yl)-(6-methoxy-2H-pyrazolo[3,4-c]quinolin-4-yl)-amine], the Ki on SYK kinase was 10 to 100 nM. Moreover, the half-inhibitory concentration (IC50) at MYLK is less than 5000 nM; on LRRK2, 100 to 1000 nM.
On to `COc1ccc2nc(Nc3ccc(N4CCN(C5CCCC5)CC4)cc3)c3n[nH]cc3c2c1` [Example #269, [4-(4-Cyclopentyl-piperazin-1-yl)-phenyl]-(8-methoxy-2H-pyrazolo[3,4-c]quinolin-4-yl)-amine], for which, on SYK kinase, the Ki was 100 to 1000 nM. The figures for the IC50 at MYLK and at LRRK2 were less than 5000 nM and 10 to 100 nM, respectively.
For the compound `COc1ccc2nc(Nc3ccc(N4CCN(CC(C)C)CC4)cc3)c3n[nH]cc3c2c1` [Example #270, [4-(4-Isobutyl-piperazin-1-yl)-phenyl]-(8-methoxy-2H-pyrazolo[3,4-c]quinolin-4-yl)-amine], on SYK kinase, the Ki was less than 10 nM. Further, the IC50 at MYLK was less than 5000 nM; on LRRK2, 100 to 1000 nM.
Regarding `COc1ccc2nc(Nc3ccc(N4CCN(C(C)C)CC4)cc3)c3n[nH]cc3c2c1` [Example #271, [4-(4-Isopropyl-piperazin-1-yl)-phenyl]-(8-methoxy-2H-pyrazolo[3,4-c]quinolin-4-yl)-amine], the Ki on SYK kinase was less than 10 nM. Besides, the IC50 at MYLK was less than 5000 nM; at LRRK2 it was 10 to 100 nM.
Consider `COc1ccc2nc(Nc3ccc(N4CCN(CC5CC5)CC4)cc3)c3n[nH]cc3c2c1` [Example #272, [4-(4-Cyclopropylmethyl-piperazin-1-yl)-phenyl]-(8-methoxy-2H-pyrazolo[3,4-c]quinolin-4-yl)-amine], for which the Ki at SYK kinase is less than 10 nM. Moreover, the IC50 is less than 5000 nM on MYLK and 10 to 100 nM at LRRK2.
For `COc1ccc2nc(Nc3ccc(N4CCN(C(C)(C)C)CC4)cc3)c3n[nH]cc3c2c1` [Example #273, [4-(4-tert-Butyl-piperazin-1-yl)-phenyl]-(8-methoxy-2H-pyrazolo[3,4-c]quinolin-4-yl)-amine] the same measures were 10 to 100 nM, less than 5000 nM and 100 to 1000 nM.

The IC50 is the point on the concentration scale where inhibition reaches its midpoint.

Values taken from patent US9499535B2, “Kinase inhibitors” (ORIGENIS GMBH, priority 2011, dated 2016).
